Experimental data: ChEMBL document CHEMBL1201862, “PubChem BioAssay data set” (2004)
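Method: 48-hour compound exposure of cells in 96-well plates, five concentrations, linear interpolation of endpoints. Abbreviation: GI50, concentration required for 50% inhibition of growth.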 The source made the active and inactive calls. Rule as the data show it: active = GI50 up to about 1.1 µM and inactive = higher.

Legend:
Assay in all cases: growth of human tumour cells (NCI), 48 h
SF-539 = tested on: SF-539
OVCAR-8 = tested on: OVCAR-8
SNB-19 = tested on: SNB-19
HOP-62 = tested on: HOP-62
ACHN = tested on: ACHN
DU-145 = tested on: DU-145
EKVX = tested on: EKVX
Hs-578T = tested on: Hs-578T
SK-OV-3 = tested on: SK-OV-3
SK-MEL-5 = tested on: SK-MEL-5
BT-549 = tested on: BT-549
A549 = tested on: A549
LOX IMVI = tested on: LOX IMVI
NCI-H23 = tested on: NCI-H23
NCI/ADR-RES = tested on: NCI/ADR-RES
SR = tested on: SR
MDA-N = tested on: MDA-N
KM12 = tested on: KM12
COLO 205 = tested on: COLO 205
CAKI-1 = tested on: CAKI-1

Measured: GI50

O=CNNC(=O)CSc1nc2ccc(I)cc2c(=O)n1Cc1ccccc1
inactive: SF-539 34.6 µM | OVCAR-8 46.5 µM | SNB-19 46.6 µM | HOP-62 37.1 µM | ACHN 34.8 µM | DU-145 43.7 µM | EKVX 23.9 µM | Hs-578T 34 µM | SK-OV-3 49.7 µM | SK-MEL-5 18.6 µM | BT-549 41.7 µM | A549 37.4 µM | LOX IMVI 25.4 µM | NCI-H23 36.7 µM | NCI/ADR-RES 31.3 µM | SR 32.2 µM | MDA-N 32.3 µM | KM12 33.4 µM | COLO 205 17.9 µM | CAKI-1 22.2 µM
